These results are taken from patent US9127136B1, “Purification of monomer from recycle polyesters” (SABIC Global Technologies B.V, priority 2014, dated 2015).

This data set in a line: Solubility of BHET in different solvents (shaken 2 hours, analyzed by HPLC). Format: physicochemical. How it is done:
Solubility of BHET in Different Solvents
10 ml of the designated solvent was added to a scintillation vial with 2 g of BHET. The vial was placed in a shaker, shaken for 2 hours and the contents were analyzed by HPLC.

Converted amounts (≈) assume the structure as drawn.

As a reminder, the solubility (thermodynamic) is the concentration in solution at equilibrium with solid. Regarding `O=C(OCCO)c1ccc(C(=O)OCCO)cc1` [BHET, bis(2-hydroxyethyl) terephthalate], the “solubility of BHET in 45% THF/Hexanes (estimated)” value (solvent: 45% THF/Hexanes, estimated from 12.6% solubility in THF) is reported as 5.67%. For the same compound, the “% Solubility (w/v)” value is, setting by setting: (solvent: Acetone) 9.09 % (w/v); (solvent: Acetonitrile) 4.98 % (w/v); (solvent: DMF) 60 % (w/v); (solvent: Dichloromethane) 1.12 % (w/v); (solvent: Ethanol) 8.61 % (w/v); (solvent: Methanol) 13.75 % (w/v). Moreover, the “% Solubility (w/v)” value is recorded as 12.6 % (w/v) (solvent: THF), 2.81 % (w/v) (solvent: ethylene glycol), “_~0 % (w/v)” (solvent: hexanes) and 6.16 % (w/v) (solvent: iso-propanol). Moreover, the thermodynamic solubility at 2 h (thermodynamic from solid, solvent: water) was 5000 µg/mL (≈ 19.7 mM).
